Reference: patent US9708314B2, “Heterocyclic amide compound” (NISSAN CHEMICAL INDUSTRIES, LTD., priority 2013, dated 2017)

Assays:
Assay type in all cases: in vivo
Brassica campestris L. = experiment: Test Example 4: effect on crop by application to foliage (diluvial soil, plastic box); details: for g (Brassica campestris L.) effect on crop grade: foliage application; for g: effect on crop, Brassica campestris L.: application to foliage, application herbicide amount 320 g/ha
In short: (§1)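 Plants were grown in sterilized diluvial soil in a greenhouse at 25-30° C for 14 days, then sprayed on stems and leaves with water-diluted emulsion formulation at set rates in g/ha. Weed control and crop injury were scored 3 weeks after treatment on a 0-5 herbicidal-ratio scale, from 0 (≤5%) to 5 (≥90%).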

Glycine max = experiment: as above; details: for d: effect on crop, Glycine max: application to foliage, application herbicide amount 320 g/ha
In short: as §1

[1] = system: Beta vulgaris ssp. vulgaris; experiment: as above; details: for f (Beta vulgaris ssp. vulgaris) effect on crop grade: foliage application; for f: effect on crop, Beta vulgaris ssp. vulgaris: application to foliage, application herbicide amount 320 g/ha
In short: as §1

Zea mays = experiment: as above; details: for c: effect on crop, Zea mays: application to foliage, application herbicide amount 320 g/ha
In short: as §1

[2] = system: directly sowed Oryza sativa; experiment: as above; details: for b: effect on crop, directly sowed Oryza sativa: application to foliage, application herbicide amount 320 g/ha
In short: as §1

Triticum aestivum = experiment: as above; details: for e (Triticum aestivum) effect on crop grade: foliage application; for e: effect on crop, Triticum aestivum: application to foliage, application herbicide amount 320 g/ha
In short: as §1

Digitaria ciliaris = experiment: Test Example 4: herbicidal effect by application to foliage (diluvial soil, plastic box); details: for F (Digitaria ciliaris) herbicidal effect grade: foliage application; for F: herbicidal effect on Digitaria ciliaris: application to foliage, application herbicide amount 320 g/ha
In short: as §1

Veronica persica = experiment: as above; details: for R (Veronica persica) herbicidal effect grade: foliage application; for R: herbicidal effect on Veronica persica: application to foliage, application herbicide amount 320 g/ha
In short: as §1

Chenopodium album = experiment: as above; details: for O (Chenopodium album) herbicidal effect grade: foliage application; for O: herbicidal effect on Chenopodium album: application to foliage, application herbicide amount 320 g/ha
In short: as §1

Abutilon theophrasti = experiment: as above; details: for M (Abutilon theophrasti) herbicidal effect grade: foliage application; for M: herbicidal effect on Abutilon theophrasti: application to foliage, application herbicide amount 320 g/ha
In short: as §1

Apera spica-venti. = experiment: as above; details: for L (Apera spica-venti.) herbicidal effect grade: foliage application; for L: herbicidal effect on Apera spica-venti.: application to foliage, application herbicide amount 320 g/ha
In short: as §1

Avena fatua = experiment: as above; details: for I (Avena fatua) herbicidal effect grade: foliage application; for I: herbicidal effect on Avena fatua: application to foliage, application herbicide amount 320 g/ha
In short: as §1

Amaranthus retroflexus = experiment: as above; details: for N (Amaranthus retroflexus) herbicidal effect grade: foliage application; for N: herbicidal effect on Amaranthus retroflexus: application to foliage, application herbicide amount 320 g/ha
In short: as §1

Alopecurus myosuroides = experiment: as above; details: for J (Alopecurus myosuroides) herbicidal effect grade: foliage application; for J: herbicidal effect on Alopecurus myosuroides: application to foliage, application herbicide amount 320 g/ha
In short: as §1

[3] = system: Echinochloa crus-galli var. crus-galli; experiment: as above; details: for H (Echinochloa crus-galli var. crus-galli) herbicidal effect grade: foliage application; for H: herbicidal effect on Echinochloa crus-galli var. crus-galli: application to foliage, application herbicide amount 320 g/ha
In short: as §1

Stellaria media = experiment: as above; details: for P (Stellaria media) herbicidal effect grade: foliage application; for P: herbicidal effect on Stellaria media: application to foliage, application herbicide amount 320 g/ha
In short: as §1

Galium spurium = experiment: as above; details: for Q (Galium spurium) herbicidal effect grade: foliage application; for Q: herbicidal effect on Galium spurium: application to foliage, application herbicide amount 320 g/ha
In short: as §1

Lolium multiflorum Lam. = experiment: as above; details: for K (Lolium multiflorum Lam.) herbicidal effect grade: foliage application; for K: herbicidal effect on Lolium multiflorum Lam.: application to foliage, application herbicide amount 320 g/ha
In short: as §1

[4] = system: Echinochloa oryzacola Vasing.; experiment: Test Example 2: herbicidal activity, application during weed generation in submerged conditions; details: Eighteenth Table; application herbicide amount 320 g/ha
In short: (§2)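 Mixed sowings in flooded alluvial soil (4 cm water), greenhouse 25-30 °C; emulsifiable concentrate diluted in water applied to the water surface at the 1-2 leaf stage, rate in g/ha. Effect scored three weeks later on a 0-5 scale (5 = ≥90% herbicidal ratio, 0 = ≤5%).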

Monochoria vaginalis = experiment: as above; details: Eighteenth Table; application herbicide amount 320 g/ha
In short: as §2

Scirpus juncoides = experiment: as above; details: Eighteenth Table; application herbicide amount 320 g/ha
In short: as §2

[5] = Application herbicide amount 320 g/ha
[6] = Application herbicide amount 320 g/ha, foliage application

Row | SMILES | A (Echinochloa oryzicola Vasing.) herbicidal ratio grade [4] | C (Monochoria vaginalis) herbicidal ratio grade (Monochoria vaginalis) | B (Scirpus juncoides) herbicidal ratio grade (Scirpus juncoides) | g: effect on crop, Brassica campestris L. (Brassica campestris L.) | d: effect on crop, Glycine max (Glycine max) | f: effect on crop, Beta vulgaris ssp. vulgaris [1] | c: effect on crop, Zea mays (Zea mays) | b: effect on crop, directly sowed Oryza sativa [2] | e: effect on crop, Triticum aestivum (Triticum aestivum) | F: herbicidal effect on Digitaria ciliaris (Digitaria ciliaris) | R: herbicidal effect on Veronica persica (Veronica persica) | O: herbicidal effect on Chenopodium album (Chenopodium album) | M: herbicidal effect on Abutilon theophrasti (Abutilon theophrasti) | L: herbicidal effect on Apera spica-venti. (Apera spica-venti.) | I: herbicidal effect on Avena fatua (Avena fatua) | N: herbicidal effect on Amaranthus retroflexus (Amaranthus retroflexus) | J: herbicidal effect on Alopecurus myosuroides (Alopecurus myosuroides) | H: herbicidal effect on Echinochloa crus-galli var. crus-galli [3] | P: herbicidal effect on Stellaria media (Stellaria media) | Q: herbicidal effect on Galium spurium (Galium spurium) | other results
1 | CC(C)[S+]([O-])c1nnc2c(C(=O)Nc3nnnn3C)ccc(C(F)(F)F)n12 (stereo not drawn) [2-032] | 5 (Herbicidal ratio of 90% or more (almost completely withered)) | 5 (Herbicidal ratio of 90% or more (almost completely withered)) | 5 (Herbicidal ratio of 90% or more (almost completely withered)) |  |  |  |  |  |  |  |  |  |  |  |  |  |  |  |  |  | g (Brassica campestris L.) effect on crop grade (Brassica campestris L.; 320 g/ha): 5 (Herbicidal ratio of 90% or more (almost completely withered)); c (Glycine max) effect on crop grade (Glycine max; foliage application, 320 g/ha): 5 (Herbicidal ratio of 90% or more (almost completely withered)); f (Beta vulgaris ssp. vulgaris) effect on crop grade ([1]; 320 g/ha): 5 (Herbicidal ratio of 90% or more (almost completely withered)); b (Zea mays) effect on crop grade (Zea mays; foliage application, 320 g/ha): 5 (Herbicidal ratio of 90% or more (almost completely withered)); d (directly sowed Oryza sativa) effect on crop grade ([2]; foliage application, 320 g/ha): 5 (Herbicidal ratio of 90% or more (almost completely withered)); e (Triticum aestivum) effect on crop grade (Triticum aestivum; 320 g/ha): 5 (Herbicidal ratio of 90% or more (almost completely withered)); F (Digitaria ciliaris) herbicidal effect grade (Digitaria ciliaris; 320 g/ha): 5 (Herbicidal ratio of 90% or more (almost completely withered)); R (Veronica persica) herbicidal effect grade (Veronica persica; 320 g/ha): 5 (Herbicidal ratio of 90% or more (almost completely withered)); O (Chenopodium album) herbicidal effect grade (Chenopodium album; 320 g/ha): 5 (Herbicidal ratio of 90% or more (almost completely withered)); M (Abutilon theophrasti) herbicidal effect grade (Abutilon theophrasti; 320 g/ha): 5 (Herbicidal ratio of 90% or more (almost completely withered)); L (Apera spica-venti.) herbicidal effect grade (Apera spica-venti.; 320 g/ha): 5 (Herbicidal ratio of 90% or more (almost completely withered)); I (Avena fatua) herbicidal effect grade (Avena fatua; 320 g/ha): 5 (Herbicidal ratio of 90% or more (almost completely withered)); N (Amaranthus retroflexus) herbicidal effect grade (Amaranthus retroflexus; 320 g/ha): 5 (Herbicidal ratio of 90% or more (almost completely withered)); J (Alopecurus myosuroides) herbicidal effect grade (Alopecurus myosuroides; 320 g/ha): 3 (Herbicidal ratio of 40% or more and less than 70%); H (Echinochloa crus-galli var. crus-galli) herbicidal effect grade ([3]; 320 g/ha): 5 (Herbicidal ratio of 90% or more (almost completely withered)); P (Stellaria media) herbicidal effect grade (Stellaria media; 320 g/ha): 5 (Herbicidal ratio of 90% or more (almost completely withered)); Q (Galium spurium) herbicidal effect grade (Galium spurium; 320 g/ha): 5 (Herbicidal ratio of 90% or more (almost completely withered)); K (Lolium multiflorum Lam.) herbicidal effect grade (Lolium multiflorum Lam.; 320 g/ha): 4 (Herbicidal ratio of 70% or more and less than 90%)
2 | CSCc1nnc2c(C(=O)Nc3nnco3)ccc(C(F)(F)F)n12 [1-146] | 3 (Herbicidal ratio of 40% or more and less than 70%) | 3 (Herbicidal ratio of 40% or more and less than 70%) | 3 (Herbicidal ratio of 40% or more and less than 70%) |  |  |  |  |  |  |  |  |  |  |  |  |  |  |  |  |  | g (Brassica campestris L.) effect on crop grade (Brassica campestris L.; [5]): 5 (Herbicidal ratio of 90% or more (almost completely withered)); d (Glycine max) effect on crop grade (Glycine max; [6]): 5 (Herbicidal ratio of 90% or more (almost completely withered)); f (Beta vulgaris ssp. vulgaris) effect on crop grade [1, 5]: 5 (Herbicidal ratio of 90% or more (almost completely withered)); c (Zea mays) effect on crop grade (Zea mays; [6]): 0 (Herbicidal ratio of 5% or less (almost no effect)); b (directly sowed Oryza sativa) effect on crop grade [2, 6]: 5 (Herbicidal ratio of 90% or more (almost completely withered)); e (Triticum aestivum) effect on crop grade (Triticum aestivum; [5]): 3 (Herbicidal ratio of 40% or more and less than 70%); F (Digitaria ciliaris) herbicidal effect grade (Digitaria ciliaris; [5]): 5 (Herbicidal ratio of 90% or more (almost completely withered)); R (Veronica persica) herbicidal effect grade (Veronica persica; [5]): 5 (Herbicidal ratio of 90% or more (almost completely withered)); O (Chenopodium album) herbicidal effect grade (Chenopodium album; [5]): 5 (Herbicidal ratio of 90% or more (almost completely withered)); M (Abutilon theophrasti) herbicidal effect grade (Abutilon theophrasti; [5]): 4 (Herbicidal ratio of 70% or more and less than 90%); L (Apera spica-venti.) herbicidal effect grade (Apera spica-venti.; [5]): 4 (Herbicidal ratio of 70% or more and less than 90%); I (Avena fatua) herbicidal effect grade (Avena fatua; [5]): 4 (Herbicidal ratio of 70% or more and less than 90%); N (Amaranthus retroflexus) herbicidal effect grade (Amaranthus retroflexus; [5]): 5 (Herbicidal ratio of 90% or more (almost completely withered)); J (Alopecurus myosuroides) herbicidal effect grade (Alopecurus myosuroides; [5]): 2 (Herbicidal ratio of 20% or more and less than 40%); H (Echinochloa crus-galli var. crus-galli) herbicidal effect grade [3, 5]: 5 (Herbicidal ratio of 90% or more (almost completely withered)); P (Stellaria media) herbicidal effect grade (Stellaria media; [5]): 5 (Herbicidal ratio of 90% or more (almost completely withered)); Q (Galium spurium) herbicidal effect grade (Galium spurium; [5]): 5 (Herbicidal ratio of 90% or more (almost completely withered)); K (Lolium multiflorum Lam.) herbicidal effect grade (Lolium multiflorum Lam.; [5]): 4 (Herbicidal ratio of 70% or more and less than 90%)
3 | COc1ccc(-c2nnc3c(C(=O)Nc4nnnn4C)ccc(C(F)(F)F)n23)cc1 [2-011] | 4 (Herbicidal ratio of 70% or more and less than 90%) | 4 (Herbicidal ratio of 70% or more and less than 90%) | 3 (Herbicidal ratio of 40% or more and less than 70%) | 1 (Herbicidal ratio of 5% or more and less than 20%) | 4 (Herbicidal ratio of 70% or more and less than 90%) | 5 (Herbicidal ratio of 90% or more (almost completely withered)) | 1 (Herbicidal ratio of 5% or more and less than 20%) | 5 (Herbicidal ratio of 90% or more (almost completely withered)) | 1 (Herbicidal ratio of 5% or more and less than 20%) | 5 (Herbicidal ratio of 90% or more (almost completely withered)) | 5 (Herbicidal ratio of 90% or more (almost completely withered)) | 5 (Herbicidal ratio of 90% or more (almost completely withered)) | 5 (Herbicidal ratio of 90% or more (almost completely withered)) | 3 (Herbicidal ratio of 40% or more and less than 70%) | 3 (Herbicidal ratio of 40% or more and less than 70%) | 5 (Herbicidal ratio of 90% or more (almost completely withered)) | 3 (Herbicidal ratio of 40% or more and less than 70%) | 5 (Herbicidal ratio of 90% or more (almost completely withered)) | 5 (Herbicidal ratio of 90% or more (almost completely withered)) | 3 (Herbicidal ratio of 40% or more and less than 70%) | K: herbicidal effect on Lolium multiflorum Lam. (Lolium multiflorum Lam.): 2 (Herbicidal ratio of 20% or more and less than 40%)
4 | Cn1nnnc1NC(=O)c1ccc(C(F)(F)F)n2c(-c3ccc(Cl)cc3)nnc12 [2-012] | 4 (Herbicidal ratio of 70% or more and less than 90%) | 5 (Herbicidal ratio of 90% or more (almost completely withered)) | 5 (Herbicidal ratio of 90% or more (almost completely withered)) | 4 (Herbicidal ratio of 70% or more and less than 90%) | 4 (Herbicidal ratio of 70% or more and less than 90%) | 5 (Herbicidal ratio of 90% or more (almost completely withered)) | 3 (Herbicidal ratio of 40% or more and less than 70%) | 5 (Herbicidal ratio of 90% or more (almost completely withered)) | 4 (Herbicidal ratio of 70% or more and less than 90%) | 4 (Herbicidal ratio of 70% or more and less than 90%) | 4 (Herbicidal ratio of 70% or more and less than 90%) | 5 (Herbicidal ratio of 90% or more (almost completely withered)) | 5 (Herbicidal ratio of 90% or more (almost completely withered)) | 2 (Herbicidal ratio of 20% or more and less than 40%) | 3 (Herbicidal ratio of 40% or more and less than 70%) | 5 (Herbicidal ratio of 90% or more (almost completely withered)) | 2 (Herbicidal ratio of 20% or more and less than 40%) | 4 (Herbicidal ratio of 70% or more and less than 90%) | 5 (Herbicidal ratio of 90% or more (almost completely withered)) | 4 (Herbicidal ratio of 70% or more and less than 90%) | K: herbicidal effect on Lolium multiflorum Lam. (Lolium multiflorum Lam.): 2 (Herbicidal ratio of 20% or more and less than 40%)
